Measurements as given in patent publication US11382956B2, “Amylin analogues” (Zealand Pharma A/S, priority 2016, dated 2022).
pEC50: −log10 of the molar value. Numbered stars: 1 amine (or outer) side, 2 acyl side, 3 side chain; on linkers, the order of the positions; unused ones are H or OH. Bridge positions count the residues as written; N and C are the ends. Square brackets hold non-standard residues; d marks the D form. Peptide text beside a SMILES is read from it. * marks the point of attachment. C20 diacid = O=C(O)CCCCCCCCCCCCCCCCCCC(=O)*; γGlu = O=C(O)[C@H](CCC(=O)[*:2])N[*:1]; Hyp = O=C(O)[C@@H]1C[C@@H](O)CN1; NMeI = CC[C@H](C)[C@H](NC)C(=O)O; Aad = N[C@@H](CCCC(=O)O)C(=O)O; Orn = NCCC[C@H](N)C(=O)O; Dab = NCC[C@H](N)C(=O)O; Dap = NC[C@H](N)C(=O)O; Sar = CNCC(=O)O

Key:
[1] = Assessment of physical stability: fibril formation by Thioflavin T fluorescence; format: physicochemical; parameters: key: FND = fibrillation not detected; FD = fibrillation detected; conditions: 1 mg/mL peptide
Method in brief: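 Fibrillation detected (FD) means a significant rise in ThT fluorescence over 96 hours at 40° C, read at 10 min intervals each preceded by 300 s automixing. Samples: 1 mg/mL peptide, 40 μM ThT, in 50 mM phosphate or histidine (pH 7.0) or acetate (pH 4.0), triplicate.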

[2] = target: T1, recombinant human calcitonin receptor (hCT-R) (Homo sapiens, UniProt P30988); experiment: hCT-R cAMP assay (AlphaScreen) in 1321N1 cells; format: cell-based; conditions: cAMP formation, 45 min stimulation
T1 construct: host or cells: human astrocytoma cell line 1321N1
T1 sequence (P30988 25-474): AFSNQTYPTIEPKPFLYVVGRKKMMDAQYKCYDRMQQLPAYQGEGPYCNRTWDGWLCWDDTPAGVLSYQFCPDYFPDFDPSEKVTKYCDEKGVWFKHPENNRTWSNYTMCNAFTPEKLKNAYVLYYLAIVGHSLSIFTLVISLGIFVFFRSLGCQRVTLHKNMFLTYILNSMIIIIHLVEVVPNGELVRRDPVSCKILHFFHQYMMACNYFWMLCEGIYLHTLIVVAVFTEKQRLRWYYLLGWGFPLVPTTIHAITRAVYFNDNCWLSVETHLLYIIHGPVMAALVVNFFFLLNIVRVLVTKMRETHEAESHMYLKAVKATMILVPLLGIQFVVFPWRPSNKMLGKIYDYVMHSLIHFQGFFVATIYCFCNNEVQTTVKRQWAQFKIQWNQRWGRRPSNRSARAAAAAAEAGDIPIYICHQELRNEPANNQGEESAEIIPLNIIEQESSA
Method in brief: (§1)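 EC50 values come from curve fits over at least 7 peptide concentrations, with cAMP read by AlphaScreen competition after 1 h in the dark. Cells were 1321N1 lines carrying human calcitonin receptor, with RAMP3 co-expressed for AMY3, treated 45 min at room temperature in the presence of IBMX.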

[3] = Pharmacokinetic (PK) profiling in rats; conditions: male, Sprague Dawley, plasma; rat, single sc bolus 30 nmol/kg; read-out: in vivo half life t1/2 (plasma terminal elimination half-life) (converted)
Protocol: Sprague Dawley male rats were given a single subcutaneous (sc) bolus of each peptide to be tested, as specified below.
30 nmol/kg doses of compound were administered. Blood samples were drawn from the tail vein prior to dosing and at 24 and 96 hours after dosing. The rats were euthanized immediately after the last blood sampling by concussion and cervical dislocation.
The dosing vehicle used for each test peptide was a mannitol-containing histidine buffer (pH 7.0). Plasma samples were analyzed after precipitation with ethanol by liquid chromatography mass spectrometry (LC-MS/MS). Mean plasma concentrations were used for calculation of the pharmacokinetic parameters.
Plasma terminal elimination half-life (t1/2) was determined as In(2)/λz, where λz is the magnitude of the slope of the log linear regression of the log concentration versus time profile during the terminal phase.

[4] = Assessment of chemical stability in 40 mM buffers at 40° C. (RP-HPLC); format: physicochemical; conditions: 1 mg/mL
Method in brief: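 Degradation is the main-peak area-% at each time point minus that at t=0, measured by C8 reversed-phase HPLC (TFA/acetonitrile/water gradient, 220 nm). Incubation at 40° C for 3 or 14 days, 1 mg/mL peptide in 40 mM buffer at pH 4, 6 or 7.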

[5] = Effect on acute food intake and body weight in normal Sprague Dawley rats; format: in vivo, Sprague Dawley (SD) rats; conditions: Dose: 30 nmol/kg sc, vehicle-corrected
[6] = target: T2, recombinant human amylin 3 receptor (hAMYR3) (Homo sapiens, UniProt O60896+P30988); experiment: hAMYR3 cAMP assay (AlphaScreen) in 1321N1 cells; format: cell-based; conditions: cAMP formation, 45 min stimulation
T2 construct: host or cells: human astrocytoma cell line 1321N1
T2 sequence (P30988 25-474): T1 sequence (P30988 25-474)
T2 sequence (O60896 24-148 partner): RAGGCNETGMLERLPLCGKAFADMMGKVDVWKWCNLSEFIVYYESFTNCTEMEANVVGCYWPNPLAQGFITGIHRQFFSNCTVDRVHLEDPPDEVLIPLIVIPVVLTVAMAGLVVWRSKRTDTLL
Method in brief: as §1

[7] = Chemical stability, alternative analysis in MilliQ water with pH adjusted, 40° C. (RP-HPLC); format: physicochemical; conditions: for % degradation after 8 days at 40° C. pH4: pH adjusted to 4.0, 8 days; for % degradation after 8 days at 40° C. pH7.5: pH adjusted to 7.5, 8 days; for % degradation after 8 days at 40° C. pH9: pH adjusted to 9.0, 8 days
Protocol: In an alternative analysis, peptides were dissolved in MilliQ water and pH adjusted to 4.0, 7.5 or 9.0. Samples were placed in glass vials and incubated at 40° C. The samples were analyzed by RP-HPLC on a C8 column with gradient elution using a trifluoroacetic acid/acetonitrile/water eluent system. The area-percentage (area-%) of the main peak was determined by UV spectroscopy at 220 nm at each sampling time point.
The % degradation was calculated by subtracting the […].
The results of the chemical stability assessment after 8 days of incubation time are summarized as % degradation in Table 3 (below).

Structure (SMILES)	Fibrillation (in buffer) pH4 acetate ([1]; 50 mM acetate buffer pH 4.0, 96 hours at 40° C.)	Fibrillation (in buffer) pH7 histidine ([1]; 50 mM histidine buffer pH 7.0, 96 hours at 40° C.)	Fibrillation (in buffer) pH7 phosphate ([1]; 50 mM phosphate buffer pH 7.0, 96 hours at 40° C.)	pEC50 [2]	half-life [3] [h]	% degradation after 72 h at 40° C. pH4 acetate ([4]; acetate buffer pH 4, 72 h) [%]	% degradation after 72 h at 40° C. pH6 phosphate ([4]; phosphate buffer pH 6, 72 h) [%]	% degradation after 14 days at 40° C. pH6 phosphate ([4]; phosphate buffer pH 6, 14 days) [%]	% degradation after 72 h at 40° C. pH7 phosphate ([4]; phosphate buffer pH 7, 72 h) [%]	Body weight reduction in % at 48 h [5] [%]	Food intake reduction in % at 48 h [5] [%]	pEC50 [6]	% degradation after 8 days at 40° C. pH4 [7] [%]	% degradation after 8 days at 40° C. pH7.5 [7] [%]	% degradation after 8 days at 40° C. pH9 [7] [%]
CC[C@H](C)[C@@H](C(=O)N[C@@H](CC(C)C)C(=O)N[C@@H](CO)C(=O)N[C@@H](CO)C(=O)N[C@H](C(=O)N[C@@H](CCC(=O)O)C(=O)N[C@H](C(=O)NCC(=O)N[C@@H](CO)C(=O)N[C@@H](CC(N)=O)C(=O)N[C@H](C(=O)N1C[C@H](O)C[C@H]1C(N)=O)[C@@H](C)O)C(C)C)[C@@H](C)O)N(C)C(=O)[C@H](C)NC(=O)CN(C)C(=O)[C@H](Cc1ccccc1)NC(=O)[C@H](CO)NC(=O)[C@H](CO)NC(=O)[C@H](CCCNC(=N)N)NC(=O)[C@H](CCC(N)=O)NC(=O)[C@H](CC(C)C)NC(=O)[C@H](Cc1ccccc1)NC(=O)[C@H](Cc1c[nH]cn1)NC(=O)[C@H](C)NC(=O)[C@H](CC(C)C)NC(=O)[C@H](CCCNC(=N)N)NC(=O)[C@H](CCC(=O)O)NC(=O)[C@@H](NC(=O)[C@H](C)NC(=O)[C@@H]1CCCNC(=O)C[C@H](NC(=O)[C@H](CCCNC(=N)N)NC(=O)CC[C@H](NC(=O)CCCCCCCCCCCCCCCCCCC(=O)O)C(=O)O)C(=O)NCC(=O)N[C@@H]([C@@H](C)O)C(=O)N[C@@H](C)C(=O)N[C@@H]([C@@H](C)O)C(=O)N1)[C@@H](C)O [Compound 3, [19CD]-isoGlu-RD()GTAT-Orn()-ATERLAHFLQRSSF-Gly(Me)-A-Ile(Me)-LSSTEVGSNT-Hyp-NH2] ({C20 diacid-γGlu}-RDGTAT[Orn]ATERLAHFLQRSSF[Sar]A[NMeI]LSSTEVGSNT[Hyp]-NH2; lactam 2-7)	FND	FND	FD	10.09	21.3	<1	3.2	1.0	1.2	5.6	34	10.46			
CC[C@H](C)[C@@H](C(=O)N[C@@H](CC(C)C)C(=O)N[C@@H](CO)C(=O)N[C@@H](CO)C(=O)N[C@H](C(=O)N[C@@H](CCC(=O)O)C(=O)N[C@H](C(=O)NCC(=O)N[C@@H](CO)C(=O)N[C@@H](CC(N)=O)C(=O)N[C@H](C(=O)N1C[C@H](O)C[C@H]1C(N)=O)[C@@H](C)O)C(C)C)[C@@H](C)O)N(C)C(=O)[C@H](C)NC(=O)CN(C)C(=O)[C@H](Cc1ccccc1)NC(=O)[C@H](CO)NC(=O)[C@H](CO)NC(=O)[C@H](CCCNC(=N)N)NC(=O)[C@H](CCC(N)=O)NC(=O)[C@H](CC(C)C)NC(=O)[C@H](Cc1ccccc1)NC(=O)[C@H](Cc1c[nH]cn1)NC(=O)[C@H](C)NC(=O)[C@H](CC(C)C)NC(=O)[C@H](CCCNC(=N)N)NC(=O)[C@H](CCC(=O)O)NC(=O)[C@@H](NC(=O)[C@H](C)NC(=O)[C@@H]1CCCC(=O)NC[C@H](NC(=O)[C@H](CCCNC(=N)N)NC(=O)CC[C@H](NC(=O)CCCCCCCCCCCCCCCCCCC(=O)O)C(=O)O)C(=O)NCC(=O)N[C@@H]([C@@H](C)O)C(=O)N[C@@H](C)C(=O)N[C@@H]([C@@H](C)O)C(=O)N1)[C@@H](C)O [Compound 48, [19CD]-isoGlu-R-Dap()-GTAT-Aad()-ATERLAHFLQRSSF-Gly(Me)-A-Ile(Me)-LSSTEVGSNT-Hyp-NH2] ({C20 diacid-γGlu}-R[Dap]GTAT[Aad]ATERLAHFLQRSSF[Sar]A[NMeI]LSSTEVGSNT[Hyp]-NH2; lactam 2-7)				9.97								10.70	1.8	2.3	2.5
CC[C@H](C)[C@@H](C(=O)N[C@@H](CC(C)C)C(=O)N[C@@H](CO)C(=O)N[C@@H](CO)C(=O)N[C@H](C(=O)N[C@@H](CCC(=O)O)C(=O)N[C@H](C(=O)NCC(=O)N[C@@H](CO)C(=O)N[C@@H](CC(N)=O)C(=O)N[C@H](C(=O)N1C[C@H](O)C[C@H]1C(N)=O)[C@@H](C)O)C(C)C)[C@@H](C)O)N(C)C(=O)[C@H](C)NC(=O)CN(C)C(=O)[C@H](Cc1ccccc1)NC(=O)[C@H](CO)NC(=O)[C@H](CO)NC(=O)[C@H](CCCNC(=N)N)NC(=O)[C@H](CCC(N)=O)NC(=O)[C@H](CC(C)C)NC(=O)[C@H](Cc1ccccc1)NC(=O)[C@H](Cc1c[nH]cn1)NC(=O)[C@H](C)NC(=O)[C@H](CC(C)C)NC(=O)[C@H](CCCNC(=N)N)NC(=O)[C@H](CCC(=O)O)NC(=O)[C@@H](NC(=O)[C@H](C)NC(=O)[C@@H]1CCC(=O)NCC[C@H](NC(=O)[C@H](CCCNC(=N)N)NC(=O)CC[C@H](NC(=O)CCCCCCCCCCCCCCCCCCC(=O)O)C(=O)O)C(=O)NCC(=O)N[C@@H]([C@@H](C)O)C(=O)N[C@@H](C)C(=O)N[C@@H]([C@@H](C)O)C(=O)N1)[C@@H](C)O [Compound 49, [19CD]-isoGlu-R-Dab()-GTATE()ATERLAHFLQRSSF-Gly(Me)-A-Ile(Me)-LSSTEVGSNT-Hyp-NH2] ({C20 diacid-γGlu}-R[Dab]GTATEATERLAHFLQRSSF[Sar]A[NMeI]LSSTEVGSNT[Hyp]-NH2; lactam 2-7)				8.98								9.35	1.7	2.1	3.0
CC[C@H](C)[C@@H](C(=O)N[C@@H](CC(C)C)C(=O)N[C@@H](CO)C(=O)N[C@@H](CO)C(=O)N[C@H](C(=O)N[C@@H](CCC(=O)O)C(=O)N[C@H](C(=O)NCC(=O)N[C@@H](CO)C(=O)N[C@@H](CC(N)=O)C(=O)N[C@H](C(=O)N1C[C@H](O)C[C@H]1C(N)=O)[C@@H](C)O)C(C)C)[C@@H](C)O)N(C)C(=O)[C@H](C)NC(=O)CN(C)C(=O)[C@H](Cc1ccccc1)NC(=O)[C@H](CO)NC(=O)[C@H](CO)NC(=O)[C@H](CCCNC(=N)N)NC(=O)[C@H](CCC(N)=O)NC(=O)[C@H](CC(C)C)NC(=O)[C@H](Cc1ccccc1)NC(=O)[C@H](Cc1c[nH]cn1)NC(=O)[C@H](C)NC(=O)[C@H](CC(C)C)NC(=O)[C@H](CCCNC(=N)N)NC(=O)[C@H](CCC(=O)O)NC(=O)[C@@H](NC(=O)[C@H](C)NC(=O)[C@@H]1CCNC(=O)CC[C@H](NC(=O)[C@H](CCCNC(=N)N)NC(=O)CC[C@H](NC(=O)CCCCCCCCCCCCCCCCCCC(=O)O)C(=O)O)C(=O)NCC(=O)N[C@@H]([C@@H](C)O)C(=O)N[C@@H](C)C(=O)N[C@@H]([C@@H](C)O)C(=O)N1)[C@@H](C)O [Compound 51, [19CD]-isoGlu-RE()GTAT-Dab()-ATERLAHFLQRSSF-Gly(Me)-A-Ile(Me)-LSSTEVGSNT-Hyp-NH2] ({C20 diacid-γGlu}-REGTAT[Dab]ATERLAHFLQRSSF[Sar]A[NMeI]LSSTEVGSNT[Hyp]-NH2; lactam 2-7)				9.06								9.51	3.1	4.6	4.6
